Measurements as given in PubChem BioAssay AID328 (DTP/NCI, 2004).
Where “and” joins values, the source holds several entries; their conditions need not be identical. Identical values can stand only once. Inconclusive results and toxic doses are left out. Rule for the calls: active = survival T/C of 150% or more; inactive = T/C below 125% in these data.

Tested on: BDF1 mice, P388 leukemia ip, median survival T/C
Experiment: NCI In Vivo Anticancer Drug Screen. Data for tumor model P388 Leukemia (intraperitoneal) in B6D2F1 (BDF1) mice
Settings: endpoint: median survival time, higher = longer survival
Summary of the method: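 Read-out is survival of treated animals expressed relative to the vehicle group, as a T/C ratio.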

[1] = dose: 100.0 mg/kg/injection, schedule: Q04DX003 (ip), vehicle: saline
[2] = dose: 200.0 mg/kg/injection, schedule: Q04DX003 (ip), vehicle: saline
[3] = dose: 400.0 mg/kg/injection, schedule: Q04DX003 (ip), vehicle: saline
[4] = dose: 100.0 mg/kg/injection, schedule: Q01DX009 (ip), vehicle: Klucel (hydroxypropylcellulose) (HPC)
[5] = dose: 200.0 mg/kg/injection, schedule: Q01DX009 (ip), vehicle: Klucel (hydroxypropylcellulose) (HPC)
[6] = dose: 400.0 mg/kg/injection, schedule: Q01DX009 (ip), vehicle: Klucel (hydroxypropylcellulose) (HPC)
[7] = dose: 50.0 mg/kg/injection, schedule: Q01DX009 (ip), vehicle: saline
[8] = dose: 50.0 mg/kg/injection, schedule: Q01DX009 (ip), vehicle: saline with Tween-80
[9] = dose: 100.0 mg/kg/injection, schedule: Q01DX009 (ip), vehicle: saline with Tween-80
[10] = dose: 200.0 mg/kg/injection, schedule: Q01DX009 (ip), vehicle: saline with Tween-80
[11] = dose: 6.25 mg/kg/injection, schedule: Q04DX003 (ip), vehicle: saline with Tween-80
[12] = dose: 12.5 mg/kg/injection, schedule: Q04DX003 (ip), vehicle: saline with Tween-80
[13] = dose: 25.0 mg/kg/injection, schedule: Q04DX003 (ip), vehicle: saline with Tween-80

Measured: T/C

O=C(Nc1ccc(S(=O)(=O)Nc2ccc(N=Nc3ccccc3)cc2)cc1)C(SC1=NC=NC2=NC=NC21)SC1=NC=NC2=NC=NC21 (stereo not drawn)
inactive: [1] 95 % of control | [2] 105 % of control | [3] 115 % of control

c1ccc(Nc2ncc3cnccn23)cc1
inactive: dose: 12.5 mg/kg/injection, schedule: Q04DX003 (ip), vehicle: saline 95 % of control | dose: 25.0 mg/kg/injection, schedule: Q04DX003 (ip), vehicle: saline 105 % of control | dose: 50.0 mg/kg/injection, schedule: Q04DX003 (ip), vehicle: saline 92 % of control | [1] 103 % of control | [2] 97 % of control and 101 % of control | dose: 300.0 mg/kg/injection, schedule: Q04DX003 (ip), vehicle: saline 115 % of control

Cc1cc(Nc2cccc(Cl)c2)cc(=O)[nH]1
inactive: dose: 50.0 mg/kg/injection, schedule: Q01DX001 (ip), vehicle: saline with Tween-80 113 % of control | dose: 100.0 mg/kg/injection, schedule: Q01DX001 (ip), vehicle: saline with Tween-80 100 % of control | dose: 200.0 mg/kg/injection, schedule: Q01DX001 (ip), vehicle: saline with Tween-80 98 % of control

O=C(OCC1OC(n2cnc3c(=S)nc[nH]c32)C(OC(=O)c2ccc([N+](=O)[O-])cc2)C1OC(=O)c1ccc([N+](=O)[O-])cc1)c1ccc([N+](=O)[O-])cc1 (stereo not drawn)
inactive: dose: 50.0 mg/kg/injection, schedule: Q01DX009 (ip), vehicle: Klucel (hydroxypropylcellulose) (HPC) 100 % of control | [4] 109 % of control | [5] 109 % of control | [6] 118 % of control

S=c1[nH]nc(-c2ccncc2)n1C1CCCCC1
inactive: dose: 50.0 mg/kg/injection, schedule: Q04DX002 (ip), vehicle: saline with Tween-80 96 % of control | dose: 100.0 mg/kg/injection, schedule: Q04DX002 (ip), vehicle: saline with Tween-80 92 % of control | dose: 200.0 mg/kg/injection, schedule: Q04DX002 (ip), vehicle: saline with Tween-80 97 % of control

CCCCCC[C@H]([C@H](C)O)n1cnc2c(N)ncnc21
inactive: dose: 15.0 mg/kg/injection, schedule: Q01DX009 (ip), vehicle: saline 105 % of control | dose: 22.0 mg/kg/injection, schedule: Q01DX009 (ip), vehicle: saline 105 % of control | dose: 33.0 mg/kg/injection, schedule: Q01DX009 (ip), vehicle: saline 104 % of control | [7] 101 % of control

Cc1cccc(CSc2nc(N)nc3c2ncn3C2CC(O)C(CO)O2)n1 (stereo not drawn)
inactive: [1] 92 % of control | [2] 98 % of control | [3] 104 % of control

CNC(=S)NC1C2CC3CC(C2)CC1C3 (stereo not drawn)
inactive: [8] 94 % of control | [9] 94 % of control | [10] 94 % of control

CCOC(Cn1ccc(=O)[nH]c1=O)OCC
inactive: dose: 100.0 mg/kg/injection, schedule: Q04DX003 (ip), vehicle: saline sonified 100 % of control | dose: 200.0 mg/kg/injection, schedule: Q04DX003 (ip), vehicle: saline sonified 104 % of control | dose: 400.0 mg/kg/injection, schedule: Q04DX003 (ip), vehicle: saline sonified 109 % of control

CC(=O)Nc1ccc(C=Nc2ccc3c(c2)Cc2ccccc2-3)cc1
inactive: [4] 109 % of control | [5] 118 % of control | [6] 118 % of control

CC(O)CN1CNC(=S)NC1 (stereo not drawn)
inactive: [7] 99 % of control | dose: 100.0 mg/kg/injection, schedule: Q01DX009 (ip), vehicle: saline 101 % of control | dose: 200.0 mg/kg/injection, schedule: Q01DX009 (ip), vehicle: saline 106 % of control

O=S1(=O)N2CN3CN(C2)CN1C3
inactive: dose: 12.5 mg/kg/injection, schedule: Q04DX003 (ip), vehicle: Klucel (hydroxypropylcellulose) (HPC) 121 % of control | dose: 50.0 mg/kg/injection, schedule: Q04DX003 (ip), vehicle: Klucel (hydroxypropylcellulose) (HPC) 105 % of control

O=[N+]([O-])CC1CCCCC1O (stereo not drawn)
inactive: [11] 100 % of control | [12] 100 % of control | [13] 90 % of control

COc1ccc(/C=N\NC(=O)OC(C)(C)C)c(OC)c1OC
inactive: dose: 100.0 mg/kg/injection, schedule: Q01DX009 (ip), vehicle: acetone 100 % of control | dose: 100.0 mg/kg/injection, schedule: Q04DX003 (ip), vehicle: Klucel (hydroxypropylcellulose) (HPC) 115 % of control | dose: 200.0 mg/kg/injection, schedule: Q01DX009 (ip), vehicle: acetone 86 % of control | dose: 200.0 mg/kg/injection, schedule: Q04DX003 (ip), vehicle: Klucel (hydroxypropylcellulose) (HPC) 110 % of control | dose: 400.0 mg/kg/injection, schedule: Q01DX009 (ip), vehicle: acetone 109 % of control | dose: 400.0 mg/kg/injection, schedule: Q04DX003 (ip), vehicle: Klucel (hydroxypropylcellulose) (HPC) 100 % of control

CCC1C/C(=C\NC(N)=O)C(=O)O1 (stereo not drawn)
inactive: [11] 96 % of control | [12] 111 % of control | [13] 104 % of control | dose: 50.0 mg/kg/injection, schedule: Q04DX003 (ip), vehicle: saline with Tween-80 104 % of control | dose: 400.0 mg/kg/injection, schedule: Q04DX003 (ip), vehicle: saline with Tween-80 86 % of control

CCCC[N+](CCCC)=c1cc(-c2ccc(Cl)cc2)ss1
inactive: dose: 3.12 mg/kg/injection, schedule: Q01DX009 (ip), vehicle: water 100 % of control and 114 % of control | dose: 6.25 mg/kg/injection, schedule: Q01DX009 (ip), vehicle: water 91 % of control and 120 % of control | dose: 12.5 mg/kg/injection, schedule: Q01DX009 (ip), vehicle: water 98 % of control and 104 % of control | dose: 25.0 mg/kg/injection, schedule: Q01DX009 (ip), vehicle: water 100 % of control and 106 % of control | dose: 50.0 mg/kg/injection, schedule: Q04DX003 (ip), vehicle: water 102 % of control | dose: 100.0 mg/kg/injection, schedule: Q04DX003 (ip), vehicle: water 93 % of control

O/N=C1/CCCc2ccccc21
inactive: [9] 86 % of control | [10] 86 % of control | dose: 400.0 mg/kg/injection, schedule: Q01DX009 (ip), vehicle: saline with Tween-80 86 % of control

CC1C[N+](C)(C)N=C1[O-] (stereo not drawn)
inactive: dose: 100.0 mg/kg/injection, schedule: Q01DX001 (ip), vehicle: saline 109 % of control | dose: 200.0 mg/kg/injection, schedule: Q01DX001 (ip), vehicle: saline 90 % of control | dose: 400.0 mg/kg/injection, schedule: Q01DX001 (ip), vehicle: saline 109 % of control

OCC1CN(c2ccccc2)N=N1 (stereo not drawn)
inactive: dose: 50.0 mg/kg/injection, schedule: Q04DX002 (ip), vehicle: saline + alcohol 107 % of control | dose: 100.0 mg/kg/injection, schedule: Q04DX002 (ip), vehicle: saline + alcohol 107 % of control | dose: 200.0 mg/kg/injection, schedule: Q04DX002 (ip), vehicle: saline + alcohol 116 % of control

CCOC(=O)N1CCN(C(=O)OCC)CC1
inactive: [8] 100 % of control | [9] 100 % of control | dose: 100.0 mg/kg/injection, schedule: Q04DX003 (ip), vehicle: saline with Tween-80 90 % of control | [10] 95 % of control
